{"source": "ChEMBL document CHEMBL3132769", "about": "“Fragment growing to retain or alter the selectivity of anchored kinase hinge-binding fragments” (Medchemcomm, 2014)", "key": {"[1]": {"biological_target": "T1, Serine/threonine-protein kinase 3 (Homo sapiens) (UniProt Q13188)", "T1 sequence (whole entry)": "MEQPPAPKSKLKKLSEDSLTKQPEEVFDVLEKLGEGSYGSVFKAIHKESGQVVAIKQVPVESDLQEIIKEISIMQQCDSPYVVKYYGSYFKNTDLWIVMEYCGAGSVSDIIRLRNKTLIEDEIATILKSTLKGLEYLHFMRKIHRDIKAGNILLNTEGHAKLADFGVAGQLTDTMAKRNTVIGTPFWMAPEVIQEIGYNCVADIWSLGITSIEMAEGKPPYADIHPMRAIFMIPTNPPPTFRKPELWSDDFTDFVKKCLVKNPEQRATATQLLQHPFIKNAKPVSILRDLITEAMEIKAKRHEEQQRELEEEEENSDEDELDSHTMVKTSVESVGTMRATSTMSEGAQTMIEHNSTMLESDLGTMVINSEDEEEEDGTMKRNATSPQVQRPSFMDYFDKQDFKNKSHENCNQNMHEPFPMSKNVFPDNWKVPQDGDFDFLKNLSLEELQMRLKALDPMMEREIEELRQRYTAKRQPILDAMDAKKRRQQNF", "assay": "Inhibition of human full length MST2 expressed in baculovirus assessed as substrate phosphorylation using fluorescence-labelled peptides as substrate at 0.06 uM after 90 mins by microfluidic peptide phosphorylation assay"}, "[2]": {"biological_target": "T2, Serine/threonine-protein kinase Sgk1 (Homo sapiens) (UniProt O00141)", "T2 sequence (whole entry)": "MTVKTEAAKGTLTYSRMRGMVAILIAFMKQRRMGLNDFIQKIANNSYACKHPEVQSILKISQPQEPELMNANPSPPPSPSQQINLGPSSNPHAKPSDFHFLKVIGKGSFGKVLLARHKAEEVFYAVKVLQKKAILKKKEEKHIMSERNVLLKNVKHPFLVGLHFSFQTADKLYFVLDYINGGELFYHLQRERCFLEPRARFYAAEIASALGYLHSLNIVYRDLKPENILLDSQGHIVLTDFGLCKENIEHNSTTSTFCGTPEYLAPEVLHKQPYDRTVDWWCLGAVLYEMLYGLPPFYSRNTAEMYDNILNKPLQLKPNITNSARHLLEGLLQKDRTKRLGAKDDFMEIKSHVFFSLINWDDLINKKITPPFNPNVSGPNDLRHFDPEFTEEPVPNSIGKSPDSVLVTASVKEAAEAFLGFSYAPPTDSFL", "assay": "Inhibition of human truncated SGK1 expressed in baculovirus assessed as substrate phosphorylation using fluorescence-labelled peptides as substrate at 70 uM after 90 mins by microfluidic peptide phosphorylation assay"}, "[3]": {"biological_target": "T3, Protein kinase C zeta type (Homo sapiens) (UniProt Q05513)", "T3 sequence (whole entry)": "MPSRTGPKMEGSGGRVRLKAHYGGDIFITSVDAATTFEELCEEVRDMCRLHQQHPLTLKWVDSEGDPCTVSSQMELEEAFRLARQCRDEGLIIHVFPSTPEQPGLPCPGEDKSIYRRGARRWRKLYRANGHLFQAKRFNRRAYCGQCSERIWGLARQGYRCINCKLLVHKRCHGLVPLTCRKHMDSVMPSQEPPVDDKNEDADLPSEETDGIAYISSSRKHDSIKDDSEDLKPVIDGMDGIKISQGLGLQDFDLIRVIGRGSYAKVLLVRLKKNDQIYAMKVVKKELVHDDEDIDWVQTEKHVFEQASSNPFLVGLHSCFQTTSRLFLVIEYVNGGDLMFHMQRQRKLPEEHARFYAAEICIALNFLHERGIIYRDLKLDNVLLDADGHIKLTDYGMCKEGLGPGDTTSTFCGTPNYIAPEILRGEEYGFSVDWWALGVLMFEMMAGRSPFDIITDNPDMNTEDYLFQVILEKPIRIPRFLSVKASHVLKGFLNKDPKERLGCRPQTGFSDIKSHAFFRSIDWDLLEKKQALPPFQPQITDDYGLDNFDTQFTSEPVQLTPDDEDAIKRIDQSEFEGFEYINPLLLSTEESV", "assay": "Inhibition of human full length PKC zeta expressed in baculovirus assessed as substrate phosphorylation using fluorescence-labelled peptides as substrate at 1000 uM after 90 mins by microfluidic peptide phosphorylation assay"}, "[4]": {"biological_target": "T4, Serine/threonine-protein kinase Nek2 (Homo sapiens) (UniProt P51955)", "T4 sequence (whole entry)": "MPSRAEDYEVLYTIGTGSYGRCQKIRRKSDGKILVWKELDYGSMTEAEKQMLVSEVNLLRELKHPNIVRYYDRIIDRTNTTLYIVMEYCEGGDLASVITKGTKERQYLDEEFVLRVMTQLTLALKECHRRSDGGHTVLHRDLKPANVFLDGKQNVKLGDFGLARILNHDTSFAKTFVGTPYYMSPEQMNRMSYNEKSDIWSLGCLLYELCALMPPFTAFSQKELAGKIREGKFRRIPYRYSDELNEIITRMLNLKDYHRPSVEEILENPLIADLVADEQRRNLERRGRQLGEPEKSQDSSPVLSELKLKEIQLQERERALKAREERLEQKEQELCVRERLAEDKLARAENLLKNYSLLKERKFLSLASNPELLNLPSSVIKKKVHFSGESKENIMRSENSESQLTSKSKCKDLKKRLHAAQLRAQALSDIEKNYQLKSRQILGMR", "assay": "Inhibition of human full length NEK2 expressed in baculovirus assessed as substrate phosphorylation using fluorescence-labelled peptides as substrate at 8 uM after 90 mins by microfluidic peptide phosphorylation assay"}, "[5]": {"biological_target": "Ribosomal protein S6 kinase alpha-2 (Homo sapiens) (UniProt Q15349)", "sequence (Q15349 whole entry)": "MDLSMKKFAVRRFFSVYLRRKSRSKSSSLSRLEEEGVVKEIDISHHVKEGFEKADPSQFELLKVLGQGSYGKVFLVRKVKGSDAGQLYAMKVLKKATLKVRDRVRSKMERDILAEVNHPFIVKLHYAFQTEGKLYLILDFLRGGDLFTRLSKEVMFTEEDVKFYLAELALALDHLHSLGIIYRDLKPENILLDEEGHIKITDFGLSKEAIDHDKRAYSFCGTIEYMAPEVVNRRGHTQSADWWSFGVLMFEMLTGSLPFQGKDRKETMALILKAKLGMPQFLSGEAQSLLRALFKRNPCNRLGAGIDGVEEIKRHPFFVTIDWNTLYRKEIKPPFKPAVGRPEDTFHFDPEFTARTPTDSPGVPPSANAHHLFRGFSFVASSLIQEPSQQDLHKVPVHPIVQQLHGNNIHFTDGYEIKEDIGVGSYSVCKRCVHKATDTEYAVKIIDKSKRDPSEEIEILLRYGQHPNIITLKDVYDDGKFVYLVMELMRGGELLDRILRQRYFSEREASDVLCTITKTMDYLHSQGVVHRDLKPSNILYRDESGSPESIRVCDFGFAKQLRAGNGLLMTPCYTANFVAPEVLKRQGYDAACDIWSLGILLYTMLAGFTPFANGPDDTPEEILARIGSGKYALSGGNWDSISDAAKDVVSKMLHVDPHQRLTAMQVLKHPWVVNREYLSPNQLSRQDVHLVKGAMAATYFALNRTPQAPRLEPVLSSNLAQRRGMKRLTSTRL", "assay": "Inhibition of human full length RSK3 expressed in baculovirus assessed as substrate phosphorylation using fluorescence-labelled peptides as substrate at 0.1 uM after 90 mins by microfluidic peptide phosphorylation assay"}}, "data": [{"compound": "NC1(Cc2ccc(Cl)cc2)CCN(c2ncnc3[nH]ccc23)CC1", "values": [{"measurement": "inhibition", "setting": "[1]", "result": 3, "unit": "%"}]}, {"compound": "CNCc1ccc(-c2ncnc3[nH]cnc23)cc1", "values": [{"measurement": "inhibition", "setting": "[2]", "result": 48, "unit": "%"}]}, {"compound": "c1cnc2[nH]ccc2c1", "values": [{"measurement": "inhibition", "setting": "[3]", "result": 31.5, "unit": "%"}]}, {"compound": "NCC1CCN(c2ncnc3[nH]ccc23)CC1", "values": [{"measurement": "inhibition", "setting": "[4]", "result": 0, "unit": "%"}]}, {"compound": "C[C@H](CN(C)C)Oc1nc(Nc2cc3cccc(Cl)c3cn2)cnc1C#N", "values": [{"measurement": "inhibition", "setting": "[5]", "result": 60.5, "unit": "%"}]}]}
